In patent publication US8324234B2, “Method for inhibiting melanin production and whitening skin with pyrimidylpyrazole compounds or pharmaceutically acceptable salts thereof” (Shiseido Company Ltd., priority 2008, dated 2012):

Test system: Mouse B16 melanoma cells
Assay: Melanin production inhibition test (quantification of melanin)
Assay type: cell-based
Conditions: for Inhibitory effect on melanin production: class of minimum non-cytotoxic concentration giving melanin amount 80% or less of solvent group, B16 cells, three days after addition; for Minimum concentration (%): minimum concentration at which an inhibitory effect on melanin production was significantly exhibited in melanoma B16 cells
Method: A test for melanin production inhibition by the compounds of the formula (1) was conducted. The test method is as follows.
Melanin Production Inhibition Test
(1) Inoculation of Cells and Addition of Test Substances
Mouse B16 melanoma cells were inoculated in a six well plate at 100,000 cells/well. The next day, test substance solutions (solvent: DMSO) were added.
(3) Quantification of Melanin
The cells after the cell proliferation test were washed with PBS three times, and then lysed by addition of 200 μL of 1M NaOH to measure an absorbance at 475 nm. Using the value thus measured as a relative value of the melanin amount, a ratio of the melanin amount (%) of the test substance-added group to the test substance-absent group (group in which only the solvent was added) was calculated. The lower the ratio of the melanin amount, the higher the melanin production-inhibitory effect. […] The inhibitory effect on melanin production was evaluated according to the following criteria.
⊚: the minimum concentration for inhibition of melanin production was 1 ppm or less.
◯: the minimum concentration for inhibition of melanin production was more than 1 ppm and 10 ppm or less.

| SMILES | Inhibitory effect on melanin production | Minimum concentration (%) |
| --- | --- | --- |
| Cc1cc(C)nc(-n2nc(C)cc2C)n1 [Compound 1, 2-(3,5-dimethylpyrazol-1-yl)-4,6-dimethylpyrimidine] | ⊚ (the minimum concentration for inhibition of melanin production was 1 ppm or less) | 1 × 10^−6% |
| Cc1cc(C)nc(-n2nc(C)cc2C)n1.Cl [Compound 2, 2-(3,5-dimethylpyrazol-1-yl)-4,6-dimethylpyrimidine hydrochloride] | ⊚ (the minimum concentration for inhibition of melanin production was 1 ppm or less) | – |
| CCc1cc(CC)n(-c2nc(C)cc(C)n2)n1 [Compound 3] | ⊚ (the minimum concentration for inhibition of melanin production was 1 ppm or less) | 3 × 10^−6% |
| Cc1cc(C)nc(-n2nc(C)c(C)c2C)n1 [Compound 4] | ⊚ (the minimum concentration for inhibition of melanin production was 1 ppm or less) | 3 × 10^−6% |
| Cc1cc(C)n(-c2nc(C)c(C)c(C)n2)n1 [Compound 5, 2-(3,5-dimethylpyrazol-1-yl)-4,5,6-trimethylpyrimidine] | ⊚ (the minimum concentration for inhibition of melanin production was 1 ppm or less) | – |
